Common to all, as to type: cell-based
The target of assay [1] is T1, SRC-3 (Homo sapiens, UniProt Q9Y6Q9).
T1 construct: expressed in transfected cells; host or cells: HeLa
Put plainly: SRC-3 intrinsic transcriptional activity luciferase assay in HeLa cells. The settings on record: pG5-LUC reporter with pBIND-SRC-3, 24 hours. On the procedure: Luciferase assays were performed in HeLa cells transiently transfected with the reporter vector pG5-LUC in combination with expression vectors for pBIND and pBIND-SRC-3 before incubation with the compound for 24 hours. In FIG. 1, the first histogram bar in each set represents pBIND; the second histogram bar in each set represents SRC-1; the third histogram bar in each set represents SRC-2; and the fourth histogram bar in each set represents SRC-3.
Intrinsic transcriptional activity assays were conducted as for FIG. 1. In FIG. 2, the left histogram bar in each set represents pBIND and the right histogram bar in each set represents pBIND-SRC3.
The effects of the SI compounds described herein on the intrinsic transcriptional activities of SRC-1, SRC-2 and SRC-3 were investigated. HeLa cells were transiently transfected with a pGL5-LUC reporter and expression vectors for pBIND and pBIND-SRC-1, pBIND-SRC-2, pBIND-SRC-3, followed by 24 hours of treatment with different concentrations of SI compounds. Compounds as described herein, including SI-9, SI-10, SI-11, SI-12, SI-14, SI-15, SI-16, SI-17, SI-19, SI-20, and SI-21, were tested for their ability to inhibit the intrinsic transcriptional activity of SRC-1, SRC-2 and SRC-3 in FIG. 1.

The subject of assay [2] is MDA-MB-468 cells. Briefly: IC50 in MDA-MB-468 cells, 72 hours incubation. The conditions noted are these: Homo sapiens. On the procedure:
(§1) The compounds described herein were synthesized as described in Example 1. The IC50 values were measured in MDA-MB-468, BT-474, and MCF-7 cells by incubating a series of concentrations of the corresponding compounds for 72 hours.
(§2) In Tables 1 and 2, “−” represents IC50 or EC50 values greater than 10 μM; “+” represents IC50 or EC50 values from greater than 1 μM to 10 μM; “++” represents IC50 or EC50 values from 0.1 μM to 1 μM; and “+++” represents IC50 or EC50 values less than 0.1 μM.

Assay [3] deals with MDA-MB-468 cells. Put plainly: EC50 in MDA-MB-468 cells, 72 hours incubation. The conditions noted are these: Homo sapiens. On the procedure: The EC50 values of certain compounds were measured in MDA-MB-468 cells by incubating a series of concentrations of the corresponding compounds for 72 hours.
as §2

Assay [4] deals with BT-474 cells. Briefly: IC50 in BT-474 cells, 72 hours incubation. The settings on record: Homo sapiens. On the procedure:
as §1, §2

Assay [5] relates to MCF-7 cells. Put plainly: IC50 in MCF-7 cells, 72 hours incubation. The conditions noted are these: Homo sapiens, MCF7. On the procedure:
as §1, §2

Some results are limits rather than exact numbers.

T1 sequence (Q9Y6Q9 whole entry): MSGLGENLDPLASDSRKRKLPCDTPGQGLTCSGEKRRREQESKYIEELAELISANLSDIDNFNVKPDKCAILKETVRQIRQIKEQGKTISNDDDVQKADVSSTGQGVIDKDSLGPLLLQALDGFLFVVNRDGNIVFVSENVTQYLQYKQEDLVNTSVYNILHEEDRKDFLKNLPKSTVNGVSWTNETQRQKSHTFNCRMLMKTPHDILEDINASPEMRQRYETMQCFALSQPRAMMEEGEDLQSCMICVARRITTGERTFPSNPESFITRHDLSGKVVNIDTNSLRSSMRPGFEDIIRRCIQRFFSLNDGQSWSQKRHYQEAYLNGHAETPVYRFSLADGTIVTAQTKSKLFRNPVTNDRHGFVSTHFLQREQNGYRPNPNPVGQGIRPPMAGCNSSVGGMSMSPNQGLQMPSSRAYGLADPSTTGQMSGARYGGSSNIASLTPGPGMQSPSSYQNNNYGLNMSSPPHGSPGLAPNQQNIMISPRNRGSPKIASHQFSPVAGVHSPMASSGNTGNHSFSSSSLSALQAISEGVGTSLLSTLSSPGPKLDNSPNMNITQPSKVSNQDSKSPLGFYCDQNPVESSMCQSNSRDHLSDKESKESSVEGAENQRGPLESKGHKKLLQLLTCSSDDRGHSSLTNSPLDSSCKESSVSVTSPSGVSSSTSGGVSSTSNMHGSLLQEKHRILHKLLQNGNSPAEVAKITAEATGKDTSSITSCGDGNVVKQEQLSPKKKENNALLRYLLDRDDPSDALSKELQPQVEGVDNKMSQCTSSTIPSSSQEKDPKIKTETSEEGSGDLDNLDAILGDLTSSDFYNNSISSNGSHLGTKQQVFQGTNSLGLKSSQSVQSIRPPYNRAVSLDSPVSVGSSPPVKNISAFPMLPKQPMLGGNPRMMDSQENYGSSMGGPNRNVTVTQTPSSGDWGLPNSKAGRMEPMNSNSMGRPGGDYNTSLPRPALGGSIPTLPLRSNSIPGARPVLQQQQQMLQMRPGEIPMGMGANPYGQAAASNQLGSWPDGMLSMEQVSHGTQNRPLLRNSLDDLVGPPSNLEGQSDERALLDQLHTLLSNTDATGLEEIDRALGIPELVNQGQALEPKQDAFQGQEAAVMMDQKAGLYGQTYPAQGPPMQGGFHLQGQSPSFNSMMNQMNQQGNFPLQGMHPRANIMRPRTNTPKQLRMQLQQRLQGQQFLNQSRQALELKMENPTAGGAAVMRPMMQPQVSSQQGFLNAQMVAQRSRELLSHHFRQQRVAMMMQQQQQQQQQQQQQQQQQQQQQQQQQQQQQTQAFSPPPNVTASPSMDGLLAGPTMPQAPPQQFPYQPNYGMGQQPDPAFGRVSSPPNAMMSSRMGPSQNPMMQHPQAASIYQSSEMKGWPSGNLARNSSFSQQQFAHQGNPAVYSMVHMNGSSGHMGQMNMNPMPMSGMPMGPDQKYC

As for `C/C(=N\Nc1nc2ccccc2n1C)c1nccs1` [SI-6], the “effect on SRC-3 intrinsic activity” value in assay [1] is listed as “able to stimulate SRC-3 intrinsic activity at certain doses”. The IC50 in assay [2] was 100 to 1000 nM.
In the case of `Cn1c(NNC(=O)c2ccccn2)nc2ccccc21` [SI-C-01], the EC50 in assay [3] was in the range of 100 to 1000 nM.
With `C/C(=N\Nc1nc2ccccc2n1C)c1ncccc1Br` [SI-E-01P], in assay [3], the EC50 fell in the range of 100 to 1000 nM.
As to `C/C(=N\Nc1nc2ccccc2n1C)c1ccco1` [SI-7], in assay [1], the “effect on SRC-3 intrinsic activity” value was “able to stimulate SRC-3 intrinsic activity at certain doses”.
`C/C(=N\Nc1nc2cc(F)c(F)cc2n1C)c1ccncn1` [SI-11]: the IC50 in assay [4] and in assay [5] was below 100 nM throughout.
Regarding `C/C(=N\Nc1nc2ccccc2n1C)c1nccn1C` [SI-4], the “effect on SRC-3 intrinsic activity” value in assay [1] was “able to stimulate SRC-3 intrinsic activity at certain doses”.
As for `C/C(=N\Nc1nc2ccccc2n1C)c1ccc[nH]1` [SI-3], the “effect on SRC-3 intrinsic activity” value in assay [1] is listed as “able to stimulate SRC-3 intrinsic activity at certain doses”.
Take `C/C(=N\Nc1nc2ccccc2n1C)c1ccc(F)cn1` [SI-21]: the IC50 in assay [4] and in assay [5] was below 100 nM each time.
With `C/C(=N\Nc1nc2ccccc2n1C)c1cccs1` [SI-8], the “effect on SRC-3 intrinsic activity” value in assay [1] is “able to stimulate SRC-3 intrinsic activity at certain doses”.
Take `C/C(=N\Nc1nc2cc(F)ccc2n1C)c1ncccn1` [SI-15]: the IC50 in assay [4] and in assay [5] was below 100 nM each time.
For the molecule `C/C(=N\Nc1nc2ccccc2n1C)c1ccncn1` [SI-20], the IC50 in assay [4] and in assay [5] was below 100 nM in each case.
For `C/C(=N\Nc1nc2cc(F)c(F)cc2n1C)c1ncccn1` [SI-10], the IC50 in assay [4] and in assay [5] was below 100 nM in each case.
Turning to `C/C(=N\Nc1nc2cc(F)ccc2n1C)c1ccccn1` [SI-14], the IC50 in assay [4] and in assay [5] was below 100 nM each time.
`C/C(=N\Nc1nc2ccccc2n1C)c1ncco1` [SI-5]: the “effect on SRC-3 intrinsic activity” value in assay [1] is listed as “able to stimulate SRC-3 intrinsic activity at certain doses”.
For `C/C(=N\Nc1nc2cc(F)ccc2n1C)c1ccc(F)cn1` [SI-17], the IC50 in assay [4] and in assay [5] was below 100 nM in each case.
In the case of `C/C(=N\Nc1nc2cc(F)ccc2n1C)c1ccncn1` [SI-16], the IC50 in assay [4] and in assay [5] was below 100 nM throughout.
In assay [4], `C/C(=N\Nc1nc2cc(F)c(F)cc2n1C)c1ccccn1` [SI-9] gave an IC50 below 100 nM.
`C/C(=N\Nc1nc2ccccc2n1C)c1ncccn1` [SI-19]: the IC50 in assay [4] and in assay [5] was below 100 nM throughout.

These data come from US11253517B2, “Small molecule regulators of steroid receptor coactivators and methods of use thereof” (BAYLOR COLLEGE OF MEDICINE, priority 2016, dated 2022).
